The values that follow come from publication PMC7238241, “Lack of Correlation between In Vitro and In Vivo Studies on the Inhibitory Effects of (‒)-Sophoranone on CYP2C9 Is Attributable to Low Oral Absorption and Extensive Plasma Protein Binding of (‒)-Sophoranone” (Pharmaceutics, 2020).

Each structure is given as a SMILES string. Where two headings read alike, the source gives them in different places. Bounds are passed on as bounds.

The term IC50 denotes the point on the concentration scale where inhibition reaches its midpoint. A lower IC50 goes with inhibition by little substance. By half-life is commonly meant the time needed for the level to fall by half in the phase considered. A high value points to slow loss. As usually defined, the Papp B→A is how fast a substance crosses the layer from the basolateral side.

For one data set, the target named is T1, CYP2E1 (Homo sapiens, UniProt P05181).
T1 construct: tissue Corning Life Sciences; host or cells: pooled human liver microsomes, 150 donors
The experiment in a line: Reversible CYP2E1 inhibition, cocktail assay (chlorzoxazone 6-hydroxylase) in human liver microsomes. In kind it is biochemical. As to the method:
(§1) The inhibitory effects of SPN on CYP1A2, CYP2A6, CYP2B6, CYP2C8, CYP2C9, CYP2C19, CYP2D6, CYP2E1, and CYP3A4 were evaluated in pooled human liver microsomes through the use of specific CYP probe substrates (cocktail assay), as previously described with a slight modification. Concentrations of each CYP probe in Table 1 were used close to their reported Km values.
(§2) Briefly, a 90-µL incubation mixture, including pooled human liver microsomes (final concentration 0.1 mg/mL), 50 mM phosphate buffer (pH 7.4), each CYP-probe substrate cocktail set, and SPN (0–50 μM), was pre-incubated for 5 min at 37 °C. SPN was dissolved in methanol and spiked into the incubation mixture to a final concentration of 0.5% methanol. All P450-selective substrates (except coumarin due to solubility) were dissolved in methanol and serially diluted with methanol to the required concentrations, and the organic solvent was subsequently evaporated under a gentle stream of N2 gas to minimize the effects of organic solvents on CYP activities. On the other hand, coumarin dissolved in 50 mM phosphate buffer (pH 7.4) was directly added into the mixed tube. The reaction was initiated by adding 10-µL aliquot of NADPH-generating system (1.3 mM NADP^+, 3.3 mM glucose 6-phosphate, 3.3 mM MgCl2, and 0.4 unit/mL glucose-6-phosphate dehydrogenase) before 15 min incubation at 37 °C in a shaking water bath. […]
(§3) The IC50 values were calculated via nonlinear least-squares regression analysis from logarithmic plots of inhibitor concentration versus percentage of activity remaining after inhibition, using SigmaPlot (ver. 14.0; Systat Software Inc, Chicago, IL, USA). The Ki values were determined from the equations for a single substrate single inhibitor model and the software available in the SigmaPlot Enzyme Kinetics module. Competitive, non-competitive, uncompetitive, or mixed inhibition models were evaluated and ranked according to the best fit based on Akaike Information Criterion (AIC) values. […]
(In general: Liver microsomes are a subcellular fraction often used to study metabolism.)

In a further data set the target is T2, CYP2A6 (Homo sapiens, UniProt P11509).
T2 construct: tissue Corning Life Sciences; host or cells: pooled human liver microsomes, 150 donors
T2 sequence (P11509 1-494): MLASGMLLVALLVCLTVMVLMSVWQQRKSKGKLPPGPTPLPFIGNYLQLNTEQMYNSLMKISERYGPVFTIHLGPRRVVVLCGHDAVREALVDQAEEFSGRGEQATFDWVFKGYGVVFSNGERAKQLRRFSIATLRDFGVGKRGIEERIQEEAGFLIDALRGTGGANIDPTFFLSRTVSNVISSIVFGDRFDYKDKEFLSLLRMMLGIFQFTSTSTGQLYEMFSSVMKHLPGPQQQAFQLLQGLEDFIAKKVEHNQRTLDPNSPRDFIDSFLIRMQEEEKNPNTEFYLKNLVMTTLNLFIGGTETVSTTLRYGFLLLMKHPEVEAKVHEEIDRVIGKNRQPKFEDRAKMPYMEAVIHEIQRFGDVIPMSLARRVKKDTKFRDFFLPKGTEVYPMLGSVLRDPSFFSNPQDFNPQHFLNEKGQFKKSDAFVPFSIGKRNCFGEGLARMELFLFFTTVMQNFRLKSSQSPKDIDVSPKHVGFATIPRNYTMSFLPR
The experiment in a line: Reversible CYP2A6 inhibition, cocktail assay (coumarin 7-hydroxylase) in human liver microsomes. The data set is classed as biochemical. As to the method:
as §1, §2, §3

For data set [1] the following is noted: cited from earlier work.
The test system of another data set is CYP1A2. As to conditions: not in vivo because of high plasma protein binding; cited from earlier work.
A short description of data set [2]: Effects of SPN on the pharmacokinetics of diclofenac in rats. Particulars: male, Sprague-Dawley, rat, plasma, po, 2 mg/kg, oral diclofenac 2 mg/kg, n = 6; for AUC(0-t): AUCt; for AUC(0-t) / AUC(0-inf) / Cmax / Tmax: rats; for Tmax: median (ranges); for half-life: t1/2, rats.
Experimental: (§4) The carotid arteries of each rat were cannulated with a polyethylene tube (Clay Adams, Franklin Lakes, NJ, USA) for blood sampling. Each rat was individually housed in a rat metabolic cage and allowed to recover from anesthesia for 4–5 h prior to the start of the experiment. […] SPN was suspended in dimethylsulfoxide:PEG400:distilled water (5:60:35, v/v/v) and administered by oral gavage at a dose of 75 mg/kg in a volume of 5 mL/kg. […] The blood samples were immediately centrifuged at 13,000× g for 5 min at 4 °C. The plasma samples were divided into two Eppendorf tubes by 50 μL and stored at −80 °C until LC-MS/MS analysis.
(§5) Briefly, 50 μL aliquots of plasma were extracted with 300 μL aliquots of acetonitrile containing chlorpropamide (internal standard), followed by LC-MS/MS (Shimadzu Corporation). Chromatographic separation was performed on a Phenomenex Luna C18 column (100 × 2.00 mm; 3.0 μm). The isocratic mobile phase consisted of 0.1% formic acid in distilled water (A) and 0.1% formic acid in acetonitrile (B) (45:55, v/v), with a flow rate of 0.3 mL/min. […] The data acquisition was computed using LabSolutions LCMS Ver.5.6 (Shimadzu Corporation).
(§6) Pharmacokinetic parameters were calculated by a non-compartmental analysis using WinNonlin Professional software (version 5.2, Pharsight Corp., Mountain View, CA, USA) that used the total area under the plasma concentration–time curve from time zero to infinity (AUC∞) or the last measured time (AUCt). The logarithmic trapezoidal rule was used during the declining plasma level phase and the linear trapezoidal rule was used for the rising plasma-level phase. The peak plasma concentration (Cmax) and time to reach Cmax (Tmax) were read directly from the experimental data. Statistically significant differences were recognized at p < 0.05.
Another data set relates to CYP2C8. Particulars: in humans; cited from earlier work.
Data set [3] is described as follows: Bi-directional Caco-2 cell permeability. The data set is classed as in vitro ADME. As to conditions: human, Caco-2; 10 μM, 2 h, n = 3. As to the method: Caco-2 cell permeability was assessed to predict the oral absorption of SPN. Cell culture and transport studies were performed as previously described. Briefly, for the bi-directional transport studies, the cells were seeded at a density of 1 × 10^5 cells/well, and the cell medium was replaced until they formed confluent monolayers. On the 25th day, the cell monolayers were washed with pre-warmed HBSS buffer. […] Before the experiment, the integrity of the cell monolayers was evaluated by measuring the transepithelial electrical resistance using a Millicell ohmmeter. After 2 h incubation at 37 °C, samples were withdrawn from both sides, respectively. All samples were stored at −80 °C until LC-MS/MS analysis, and all experiments were performed in triplicate.
The apparent permeability coefficient (Papp) was calculated using the following equation. Papp = (Vr/C0) × (1/A) × ([Drug]/t) where, Vr is the volume of medium in the receiver chamber, C0 is the donor compartment concentration at time zero, A is the area of the cell monolayer, t is the treatment time of the drug, and [Drug] is the drug concentration in the receiver chamber.
Background: Caco-2 monolayers are a common model of the intestinal barrier.

The conditions of data set [4]: male, Sprague-Dawley, rat, in vivo, po, 2 mg/kg.
Experimental: as §4, §5, §6
A short description of the next data set: in vivo. Particulars: male, Sprague-Dawley, rat, po, 2 mg/kg.

T1 sequence (P05181 whole entry): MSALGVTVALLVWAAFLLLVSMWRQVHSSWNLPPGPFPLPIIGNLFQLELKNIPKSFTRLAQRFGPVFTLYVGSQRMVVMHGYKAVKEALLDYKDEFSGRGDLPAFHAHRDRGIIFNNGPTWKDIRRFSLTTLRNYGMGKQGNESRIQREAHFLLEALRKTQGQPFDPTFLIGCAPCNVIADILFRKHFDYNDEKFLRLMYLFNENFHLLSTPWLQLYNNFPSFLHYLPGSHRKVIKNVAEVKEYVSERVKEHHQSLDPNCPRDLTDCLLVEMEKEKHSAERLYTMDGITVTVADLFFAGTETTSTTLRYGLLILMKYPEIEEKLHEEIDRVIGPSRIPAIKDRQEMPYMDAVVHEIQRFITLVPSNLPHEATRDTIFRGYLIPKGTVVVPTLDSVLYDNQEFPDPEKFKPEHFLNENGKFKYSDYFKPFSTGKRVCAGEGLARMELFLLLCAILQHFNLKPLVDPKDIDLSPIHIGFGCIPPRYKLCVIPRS
Experimental for in vivo: as §4, §5, §6

`CCN(CC)C(=S)S` [Diethyldithiocarbamate, reference compound] showed an IC50 at CYP2E1 of 12 ± 3.67 µM.
Molecule `NCCc1c[nH]c2ccccc12` [Tryptamine, reference compound] displayed an IC50 on CYP2A6 of 2.98 ± 0.635 µM.
For `Cc1c(Cl)cccc1Nc1ccccc1C(=O)O` [Tolfenamic acid], the plasma protein binding in data set [1] is listed as 99.7%. Moreover, in the data set with CYP1A2, the “CYP1A2 inhibition in vitro” value is “strongly inhibited CYP1A2 in vitro”.
With `O=C(O)Cc1ccccc1Nc1c(Cl)cc(O)cc1Cl` [4′-hydroxydiclofenac], in [2] (with oral SPN 75 mg/kg), the AUC(0-t) is 742 ng·h/mL, the AUC(0-inf) is 1130 ng·h/mL, the Cmax was found to be 173 ± 40.8 ng/mL and the Tmax was 0.25 h. This molecule yielded a half-life in data set [2] (with oral SPN 75 mg/kg) of 4.93 ± 0.995 h. In data set [2] (without SPN), the AUC(0-t) was 747 ng·h/mL, the AUC(0-inf) was 1140 ng·h/mL, the Cmax came out at 180 ± 55.2 ng/mL and the Tmax was 0.167 h. Also, the half-life in [2] (without SPN) is 4.63 ± 1.17 h.
With `CC(C)(O)c1ccccc1CC[C@@H](SCC1(CC(=O)O)CC1)c1cccc(/C=C/c2ccc3ccc(Cl)cc3n2)c1` [Montelukast], the plasma protein binding in [1] (reference not given) is given as more than 99.7%. Besides, the “effect on the pharmacokinetics of the CYP2C8 substrates pioglitazone and rosiglitazone” value in the data set with CYP2C8 was “no effect”.
In data set [3], `CC(C)NCC(O)COc1cccc2ccccc12` (centres unmarked) [propranolol, reference compound] displayed a Papp B→A at 2 h, 10 µM of 21.5 ± 2.19 ×10⁻⁶ cm/s.
In turn, `O=C(O)Cc1ccccc1Nc1c(Cl)cccc1Cl` [Diclofenac] yielded an AUCt in data set [4] of 69.4 ± 2.98 µg·min/mL. In the data set “in vivo” (AUCt), the AUC(0-t) is 1060 ng·h/mL. For the same molecule, the AUC(0-inf) in the data set “in vivo” (AUC∞) was 1200 ng·h/mL. In “in vivo” (Cmax), the Cmax stood at 882 ± 245 ng/mL. In the data set “in vivo” (Tmax, median (ranges)), the Tmax was 5 min. Besides, the half-life in the data set “in vivo” (t1/2) was found to be 2.55 ± 1 h.
